The test system of one data set is HepG2 Cells. As to the kind of experiment: De novo cholesterol synthesis in HepG2 hepatocytes (D2O). The format is cell-based, human. As to conditions: for % DE NOVO (De Novo Cholesterol Synthesis): HepG2, 96 h, n = 3, untreated 55.8; for de novo cholesterol synthesis (in words): HepG2 / human hepatocytes. The source says: HepG2 cells were obtained from Dr. Barbara Knowles of the Wistar Institute, Pennsylvania. The HepG2 stock monolayers were maintained under the same conditions as the fibroblast monolayers, in a medium comprising MEM supplemented with 10% heat-inactivated FBS, and 1% (v/v) each of penicillin-streptomycin solution, non-essential and essential amino acids, and L-glutamine.
For experiments using HepG2 cells, confluent stock monolayers were washed once with Dulbecco's PBS, dissociated with 0.05-0.02% trypsin-EDTA followed by treatment with deoxyribonuclease I (0.1%), and were seeded (3.0×10^6) under identical conditions. The experimental MEM contained 25% (v/v) D2 O, 9% (v/v) delipidated FBS, and 1% (v/v) each of heat-inactivated FBS, penicillin-streptomycin, essential and non-essential amino acids, L-glutamine and 20 mM HEPES.
The fibroblast and hepatoblastoma cells were cultured in media containing 25% D2 O and 1% FBS in order to determine de novo cholesterol synthesis under conditions that permit receptor mediated cholesterol transport, according to the method of Easterman & Javitt et al., J. Lipid Res., 26: 950-954 (1985). Dish cultures of each cell type were prepared, and 26-aminocholesterol, dissolved in N,N-dimethylformamide (DMF, 9 ul per dish, 0.3% v/v) was added to each culture. The cells were then grown to confluence (96 hours, day 5). […] Duplicate or triplicate dishes containing 9 ul of DMF, but without 26-aminocholesterol, were used as controls.
After 96 hours of incubation, medium was removed from the cell cultures, and the cells were washed with Dulbecco's PBS and were harvested with 0.05% trypsin - 0.02% EDTA. The protease was deactivated with an equivolume aliquot of soybean trypsin inhibitor, and the resulting cell suspension was centrifuged for 5 minutes at 500xg. An internal standard of 5B-cholestan-3B-ol was added to the pellets prior to extraction with an 8:4:3 chloroform:methanol:water Folch mixture, as described in Folch et al., J. Biol. Chem., 266: 497-509 (1957). An aliquot of the extract was blown to dryness under nitrogen and silylated with 2:1:1 MSTFA (a sylated reagent supplied by Pierce Co.): toluene:-pyridine. Free cholesterol was determined by gas-liquid chromatography (GLC) on a Perkin-Elmer capillary gas-liquid chromatography model 8320 fitted with a 20 m DE-1 methylsilicon glass column (Supelco). The remaining extract was dried and saponified with 2% ethanolic KOH at 80° C. for one hour. The […] was then re-extracted and total cholesterol was measured by GLC after silylation. Cholesterol ester was calculated as the difference between the total and free cholesterol determinations. Newly synthesized cholesterol was determined by GLC-MS isotope mass ratios, using a Hewlett-Packard GC-MS spectrometer model 5890 fitted with DB-1 methyl silicon 0.18 i.d. 20 m glass column (Supelco), according to the method of J. Lipid. Res., 26: 950-954, supra. […]

The test system of data set [1] is fibroblast and hepatoblastoma cells. The format is cell-based, human. On the procedure: Lipid Res., 26: 950-954 (1985). Dish cultures of each cell type were prepared, and 26-aminocholesterol, dissolved in N,N-dimethylformamide (DMF, 9 ul per dish, 0.3% v/v) was added to each culture. The cells were then grown to confluence (96 hours, day 5). […] Duplicate or triplicate dishes containing 9 ul of DMF, but without 26-aminocholesterol, were used as controls.

For a further data set, the system named is HMG CoA reductase. Description: HMG CoA reductase activity in fibroblasts. The format is cell-based.
Data set [2] concerns DNA synthesis and cell growth. The settings on record: mechanism appears independent of HMG CoA reductase activity; cited from earlier work.

Each structure is given as a SMILES string. Entries after “also recorded” stand apart in the source; their conditions may differ.

`C[C@@H](CN)CCC[C@@H](C)[C@H]1CC[C@H]2[C@@H]3CC=C4C[C@@H](O)CC[C@]4(C)[C@H]3CC[C@]12C` [26-NH2, 26-aminocholesterol]: the “% DE NOVO (De Novo Cholesterol Synthesis)” value (“% DE NOVO” for short) in the data set with HepG2 Cells (0.156 uM) is 38.3%; with HepG2 Cells (0.312 uM) it was 45.1%; in the data set on HepG2 Cells (0.625 uM), 42.0%. Also, the “de novo cholesterol synthesis (in words)” value with HepG2 Cells is reported as “do not provide a similar reduction; also recorded: no impact”. The “effect on cell growth” value in data set [1] was “No effect on cell growth was observed”. Also, in the data set on HMG CoA reductase, the “HMG CoA reductase activity” value is “inhibit HMG CoA reductase activity”. Besides, in data set [2], the “DNA synthesis and cell growth” value was “downregulate DNA synthesis and cell growth”.
As to `CC(CO)CCC[C@@H](C)[C@H]1CC[C@H]2[C@@H]3CC=C4C[C@@H](O)CC[C@]4(C)[C@H]3CC[C@]12C` (stereo partly shown) [26-OH, 26-hydroxycholesterol], the “% DE NOVO” value in the data set with HepG2 Cells (0.625 uM) is 57.1%. Moreover, in the data set on HepG2 Cells, the “de novo cholesterol synthesis (in words)” value was “do not provide a similar reduction”.
Turning to `CC(CS)CCC[C@@H](C)[C@H]1CC[C@H]2[C@@H]3CC=C4C[C@@H](O)CC[C@]4(C)[C@H]3CC[C@]12C` (stereo partly shown) [26-SH], the “% DE NOVO” value in the data set with HepG2 Cells (5.0 uM) came to 49.7%; with HepG2 Cells (10.0 uM), 47.9%; in the data set with HepG2 Cells (20.0 uM) it was 41.9%. Also, the “de novo cholesterol synthesis (in words)” value with HepG2 Cells was “no impact”.

These data come from US4939134A, “26-aminocholesterol and derivatives and analogs thereof in the regulation of cholesterol accumulation in body tissue” (New York University, priority 1988, dated 1990).
